# Measurements from US20230321253A1, “BIFUNCTIONAL COMPOUNDS AND PHARMACEUTICAL USES THEREOF” (RISEN (SUZHOU) PHARMA TECH CO., LTD., priority 2022, published 2023).
# Biological target: T1, KRAS-G12D protein (Homo sapiens, UniProt P01116, G12D)
# T1 construct: host or cells: Aspc-1 cells
# Assay: KRAS-G12D protein degradation study in Aspc-1 cells (western blot)
# Type: cell-based
# Conditions: ASPC1, 24 h, Aspc-1 cells treated with 0.1 μM compound, 24 hours; read-out: Rate of protein degradation (KRAS^G12D)
# Method: Aspc-1 (Cobioer, CBP60546) cells in exponential growth phase were inoculated on a 6-well cell culture plate (Corning, 3516) at density of 1E6/well; and cells in the plate were cultured in 37° C. incubator containing 5% carbon dioxide. The next day, test compounds were dissolved in DMSO (Sigma, RNBF5902) for the preparation of a 10 mM concentration stock solution. The stock solution was diluted with complete medium (RPMI-1640 supplemented with 10% fetal bovine serum, 1% penicillin-streptomycin), yielding working solutions of various concentrations. The plate, after the addition of compounds, was placed in a 5% carbon dioxide incubator, and incubated at 37° C. for 24 hours (final DMSO concentration was 0.1%). The plate was then removed from the incubator, and the cells were washed twice with precooled PBS (Gibco, 14190250), followed by addition of 80 μL RIPA lysis buffer (containing protease inhibitor (Invitrogen™, AM2696)) to each well. The adherent cells were scraped off with a cell scraper, and the cell lysate was transferred to a 1.5 mL centrifuge tube followed with a 30-minute incubation on ice. The lysate was then clarified with centrifugation at 14000 rpm for 10 min at 4° C. The supernatant was transferred into a new 1.5 mL centrifuge tube, and protein concentration was measured with BCA protein detection kit (Thermo Fisher, 23225). KRAS-G12D protein level was assessed by western blot.
# A mixture of cell lysate (40 μL) and loading buffer (10 μL 5×SDS (Beyotime, P0015L)) was denatured in a water bath at 95° C. for 10 min. The denatured protein sample, at 30 μL/well, was loaded into the corresponding well of a 4-20% Bis-Tris gel (Kingsley, M00656). Protein samples were initially electrophoresed at 80 V for 30 minutes, followed by 120 V for 40 minutes, until the bromophenol blue strip ran to an appropriate position. After electrophoresis, iBlot2 (Life Technologies, IB21001) was used to transfer the separated samples onto PVDF film. The PVDF membrane was washed with double-distilled water and then blocked in TBST (Thermo Scientific, 28360) buffer containing 5% non-fat milk, for 2 hours. Blocked membrane was rinsed with tris-buffered saline tween-20 (Thermo Scientific, 28360, TBST) three times, 10 minutes each. Membrane was then incubated with 1:1000 diluted KRAS primary antibody (CST, cat #14429S) overnight at 4° C. Membrane was rinsed as described previously followed by 1 hour incubation of secondary antibody at room temperature. After washing the film three times with TBST, ECL color developing solution was applied, and image was captured with Biorad Chemi Doc gel imager. The band gray value was quantified (Image Lab), and protein degradation level was calculated according to the following formula:
# Level of RAS protein expression=(RAS-compound/GAPDH)/(RAS-DMSO/GAPDH)
# Level of degradation (%)=(1−Rate of RAS protein expression)×100
# The symbols “−”, “+”, “++”, and “+++” indicate that the degradation level of KRAS^G12D protein induced by the test compounds was 10% or less, 11 to 30%, 31 to 60%, and greater than 60%, respectively.
# Half-maximum degradation concentrations (DC50s) of exemplary test compounds were calculated using GraphPad Prism and their values are shown in Table 6. The symbols “++++”, “+++”, “++” and “+” indicate DC50 equal or less than 10 nM, 11-50 nM, 51-100 nM, and 101-200 nM, respectively.
# T1 sequence (P01116 1-188 isoform P01116-2 G12D): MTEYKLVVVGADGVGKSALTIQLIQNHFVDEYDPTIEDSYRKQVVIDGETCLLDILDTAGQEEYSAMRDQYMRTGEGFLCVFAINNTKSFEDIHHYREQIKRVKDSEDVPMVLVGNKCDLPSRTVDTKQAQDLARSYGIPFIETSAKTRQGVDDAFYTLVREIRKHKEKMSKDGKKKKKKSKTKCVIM
row,SMILES,inhibition at 0.1 µM
1,C#Cc1c(F)ccc2cc(O)cc(-c3ncc4c(N5CC6CCC(C5)N6)nc(OC5CCN(CCCCCCCCCCCCOc6cc(-c7ncsc7C)ccc6CNC(=O)[C@@H]6C[C@@H](O)CN6C(=O)[C@@H](NC(=O)C6(F)CC6)C(C)(C)C)CC5)nc4c3F)c12 [Compound 78],≤ 10%
2,CCc1c(F)ccc2cc(O)cc(-c3ncc4c(N5CC6CCC(C5)N6)nc(OC5CCN(CCCCCCCCCCC(=O)N[C@H](C(=O)N6C[C@H](O)C[C@H]6C(=O)N[C@@H](C)c6ccc(-c7scnc7C)cc6)C(C)(C)C)CC5)nc4c3F)c12 [Compound 80],31 to 60%
3,CCc1c(F)ccc2cc(O)cc(-c3ncc4c(N5CC6CCC(C5)N6)nc(OCC5(CN6CCC7(CC6)CC(N6CCC(c8ccc9c(C%10CCC(=O)NC%10=O)nn(C)c9c8)CC6)C7)CC5)nc4c3F)c12 (stereo not shown) [Compound 81],31 to 60%
4,C#Cc1c(F)ccc2cc(O)cc(-c3ncc4c(N5CC6CCC(C5)N6)nc(O[C@H]5CCN(CCCCCCCCCC(=O)N[C@H](C(=O)N6C[C@H](O)C[C@H]6C(=O)N[C@@H](C)c6ccc(-c7scnc7C)cc6)C(C)(C)C)C5)nc4c3F)c12 [Compound 83],11 to 30%
5,C#Cc1c(F)ccc2cc(O)cc(-c3ncc4c(N5CC6CCC(C5)N6)nc(O[C@H]5CCN(CCCCCCCCCCCC(=O)N[C@H](C(=O)N6C[C@H](O)C[C@H]6C(=O)N[C@@H](C)c6ccc(-c7scnc7C)cc6)C(C)(C)C)C5)nc4c3F)c12 [Compound 84],31 to 60%
6,C#Cc1c(F)ccc2cc(O)cc(-c3ncc4c(N5CC6CCC(C5)N6)nc(O[C@H]5CCN(CCCCCCCCCCC(=O)N[C@H](C(=O)N6C[C@H](O)C[C@H]6C(=O)N[C@@H](C)c6ccc(-c7scnc7C)cc6)C(C)(C)C)C5)nc4c3F)c12 [Compound 85],> 60%
7,C#Cc1c(F)ccc2cc(O)cc(-c3ncc4c(N5CC6CCC(C5)N6)nc(O[C@@H]5CCN(CCCCCCCCCCC(=O)N[C@H](C(=O)N6C[C@H](O)C[C@H]6C(=O)N[C@@H](C)c6ccc(-c7scnc7C)cc6)C(C)(C)C)C5)nc4c3F)c12 [Compound 86],31 to 60%
8,C#Cc1c(F)ccc2cc(O)cc(-c3ncc4c(N5CC6CCC(C5)N6)nc(O[C@@H]5CCN(CCCCCCCCCCCC(=O)N[C@H](C(=O)N6C[C@H](O)C[C@H]6C(=O)N[C@@H](C)c6ccc(-c7scnc7C)cc6)C(C)(C)C)C5)nc4c3F)c12 [Compound 87],31 to 60%
9,C#Cc1c(F)ccc2cc(O)cc(-c3ncc4c(N5CC6CCC(C5)N6)nc(O[C@@H]5CCN(CCCCCCCCCC(=O)N[C@H](C(=O)N6C[C@H](O)C[C@H]6C(=O)N[C@@H](C)c6ccc(-c7scnc7C)cc6)C(C)(C)C)C5)nc4c3F)c12 [Compound 88],≤ 10%
10,C#Cc1c(F)ccc2cc(O)cc(-c3ncc4c(N5CC6CCC(C5)N6)nc(OCC5C[C@@H](NC(=O)CCCCCCCCCCC(=O)N6CCC(c7ccc8c(C9CCC(=O)NC9=O)nn(C)c8c7)CC6)CN5C)nc4c3F)c12 (stereo partly shown) [Compound 89],≤ 10%
11,C#Cc1c(F)ccc2cc(O)cc(-c3ncc4c(N5CC6CCC(C5)N6)nc(OC[C@@H]5C[C@@H](NC(=O)CCCCCCCCCCC(=O)N[C@H](C(=O)N6C[C@H](O)C[C@H]6C(=O)N[C@@H](C)c6ccc(-c7scnc7C)cc6)C(C)(C)C)CN5C)nc4c3F)c12 [Compound 90],≤ 10%
12,C#Cc1c(F)ccc2cc(O)cc(-c3ncc4c(N5CC6CCC(C5)N6)nc(OCC56CCCN5[C@@H](COC(=O)NCCCCCCCCCCC(=O)N[C@H](C(=O)N5C[C@H](O)C[C@H]5C(=O)N[C@@H](C)c5ccc(-c7scnc7C)cc5)C(C)(C)C)CC6)nc4c3F)c12 (stereo partly shown) [Compound 93],> 60%
13,C#Cc1c(F)ccc2cc(O)cc(-c3ncc4c(N5CC6CCC(C5)N6)nc(OCC5CCN(CC(=O)N6CCC(c7ccc8c(C9CCC(=O)NC9=O)nn(C)c8c7)CC6)C5)nc4c3F)c12 (stereo not shown) [Compound 94],31 to 60%
14,C#Cc1c(F)ccc2cc(O)cc(-c3ncc4c(N5CC6CCC(C5)N6)nc(OC[C@@H]5C[C@@H](NC(=O)N6CCC(c7ccc8c(C9CCC(=O)NC9=O)nn(C)c8c7)CC6)CN5C)nc4c3F)c12 (stereo partly shown) [Compound 95],11 to 30%
15,C#Cc1c(F)ccc2cc(O)cc(-c3ncc4c(N5CC6CCC(C5)N6)nc(OCC56CCCN5[C@@H](COC(=O)N5CCC(c7ccc8c(C9CCC(=O)NC9=O)nn(C)c8c7)CC5)CC6)nc4c3F)c12 (stereo partly shown) [Compound 97],31 to 60%
16,C#Cc1c(F)ccc2cc(O)cc(-c3ncc4c(N5CC6CCC(C5)N6)nc(OCC56CCCN5[C@@H](COC(=O)NCCCCCCCCCC(=O)N[C@H](C(=O)N5C[C@H](O)C[C@H]5C(=O)N[C@@H](C)c5ccc(-c7scnc7C)cc5)C(C)(C)C)CC6)nc4c3F)c12 (stereo partly shown) [Compound 98],31 to 60%
17,C#Cc1c(F)ccc2cc(O)cc(-c3ncc4c(N5CC6CCC(C5)N6)nc(OC5CCN(CCCCCCCCCCC(=O)N6CCN(C(=O)C[C@H](NC(=O)[C@@H]7C[C@@H](O)CN7C(=O)[C@@H](NC(=O)C7(F)CC7)C(C)(C)C)c7ccc(-c8scnc8C)cc7)CC6)CC5)nc4c3F)c12 [Compound 103],≤ 10%
18,C#Cc1c(F)ccc2cc(O)cc(-c3ncc4c(N5CC6CCC(C5)N6)nc(OCC5(CN6CCN(CCCCCCCCCCC(=O)N7CCN(C(=O)C[C@H](NC(=O)[C@@H]8C[C@@H](O)CN8C(=O)[C@@H](NC(=O)C8(F)CC8)C(C)(C)C)c8ccc(-c9scnc9C)cc8)CC7)CC6)CC5)nc4c3F)c12 [Compound 106],11 to 30%
19,C#Cc1c(F)ccc2cc(O)cc(-c3ncc4c(N5CC6CCC(C5)N6)nc(OCC5(CN6CCC(C(=O)N7CCN(c8ccc(NC9CCC(=O)NC9=O)cc8F)CC7)CC6)CC5)nc4c3F)c12 (stereo not shown) [Compound 107],11 to 30%
20,C#Cc1c(F)ccc2cc(O)cc(-c3ncc4c(N5CC6CCC(C5)N6)nc(OCC5(CN6CCN(C(=O)CN7CCN(c8ccc(NC9CCC(=O)NC9=O)cc8F)CC7)CC6)CC5)nc4c3F)c12 (stereo not shown) [Compound 108],≤ 10%
21,C#Cc1c(F)ccc2cc(O)cc(-c3ncc4c(N5CC6CCC(C5)N6)nc(OCC5(CN6CCN(CC7CCN(c8ccc(NC9CCC(=O)NC9=O)cc8F)CC7)CC6)CC5)nc4c3F)c12 (stereo not shown) [Compound 109],31 to 60%
22,C#Cc1c(F)ccc2cc(O)cc(-c3ncc4c(N5CC6CCC(C5)N6)nc(OCC5(CN6CCC7(CC6)CCN(c6ccc(NC8CCC(=O)NC8=O)cc6F)CC7)CC5)nc4c3F)c12 (stereo not shown) [Compound 110],31 to 60%
23,C#Cc1c(F)ccc2cc(O)cc(-c3ncc4c(N5CC6CCC(C5)N6)nc(OCC5(CN6CCC(N7CCC(c8ccc9c(C%10CCC(=O)NC%10=O)nn(C)c9c8)CC7)CC6)CC5)nc4c3F)c12 (stereo not shown) [Compound 113],> 60%

# Same assay, conditions: Aspc-1 cells treated with 0.1 μM compound, 24 hours
row,SMILES,Rate of protein degradation (KRAS^G12D)
1,C#Cc1c(F)ccc2cc(O)cc(-c3ncc4c(N5CC6CCC(C5)N6)nc(OC[C@@H]5C[C@@H](NC(=O)CCCCCCC(=O)N[C@H](C(=O)N6C[C@H](O)C[C@H]6C(=O)N[C@@H](C)c6ccc(-c7scnc7C)cc6)C(C)(C)C)CN5C)nc4c3F)c12 [Compound 91],− (10% or less)
2,C#Cc1c(F)ccc2cc(O)cc(-c3ncc4c(N5CC6CCC(C5)N6)nc(OCC5(CN6CCC(c7ccc8c(C9CCC(=O)NC9=O)nn(C)c8c7)CC6)CC5)nc4c3F)c12 (stereo not shown) [Compound 99],+++ (greater than 60%)
3,C#Cc1c(F)ccc2cc(O)cc(-c3ncc4c(N5CC6CCC(C5)N6)nc(OC5CCN(CC(=O)N6CCC7(CC6)CC(N6CCC(c8ccc9c(C%10CCC(=O)NC%10=O)nn(C)c9c8)CC6)C7)C5)nc4c3F)c12 (stereo not shown) [Compound 101],+ (11 to 30%)

# Same assay, conditions: Aspc-1 cells; read-out: DC50 of test compound-induced KRAS^G12D protein degradation
row,SMILES,DC50
1,C#Cc1c(F)ccc2cc(O)cc(-c3ncc4c(N5CC6CCC(C5)N6)nc(O[C@H]5CCN(CCCCCCCCCC(=O)N[C@H](C(=O)N6C[C@H](O)C[C@H]6C(=O)N[C@@H](C)c6ccc(-c7scnc7C)cc6)C(C)(C)C)C5)nc4c3F)c12 [Compound 83],101 to 200 nM
2,C#Cc1c(F)ccc2cc(O)cc(-c3ncc4c(N5CC6CCC(C5)N6)nc(OCC56CCCN5[C@@H](COC(=O)NCCCCCCCCCCC(=O)N[C@H](C(=O)N5C[C@H](O)C[C@H]5C(=O)N[C@@H](C)c5ccc(-c7scnc7C)cc5)C(C)(C)C)CC6)nc4c3F)c12 (stereo partly shown) [Compound 93],51 to 100 nM
3,C#Cc1c(F)ccc2cc(O)cc(-c3ncc4c(N5CC6CCC(C5)N6)nc(OCC5(CN6CCC(c7ccc8c(C9CCC(=O)NC9=O)nn(C)c8c7)CC6)CC5)nc4c3F)c12 (stereo not shown) [Compound 99],11 to 50 nM
4,C#Cc1c(F)ccc2cc(O)cc(-c3ncc4c(N5CC6CCC(C5)N6)nc(OCC5(CN6CCC7(CC6)CCN(c6ccc(NC8CCC(=O)NC8=O)cc6F)CC7)CC5)nc4c3F)c12 (stereo not shown) [Compound 110],< 10 nM
5,C#Cc1c(F)ccc2cc(O)cc(-c3ncc4c(N5CC6CCC(C5)N6)nc(OCC5(CN6CCC(N7CCC(c8ccc9c(C%10CCC(=O)NC%10=O)nn(C)c9c8)CC7)CC6)CC5)nc4c3F)c12 (stereo not shown) [Compound 113],< 10 nM
